Bridge positions count the residues as written; N and C are the ends. Peptide text beside a SMILES is read from it.
Assays:
Human β-FXIIa [1] = biological target: T1, Human β-FXIIa (Homo sapiens, UniProt P00748); assay: FXIIa competitive inhibition assay, fluorescent substrate Boc-QGR-MCA; format: biochemical
T1 construct: Human β-FXIIa was obtained from Molecular Innovations, together with human FXa, human FXIa, human α-thrombin, and human plasma kallikrein; purchased Molecular Innovations; host or cells: purified from human plasma
T1 sequence (P00748 373-615 limits assumed, other chains not shown): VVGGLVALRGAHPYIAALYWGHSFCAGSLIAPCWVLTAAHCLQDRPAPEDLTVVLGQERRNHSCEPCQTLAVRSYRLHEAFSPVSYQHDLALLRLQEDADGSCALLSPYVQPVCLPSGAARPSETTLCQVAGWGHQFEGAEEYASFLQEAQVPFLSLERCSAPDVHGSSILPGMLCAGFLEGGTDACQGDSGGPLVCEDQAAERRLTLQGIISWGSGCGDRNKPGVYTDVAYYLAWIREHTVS
Excerpt: Cyclic [I7F]MCoFx1 (also referred to as cyclic MCoFx6) was synthesized using solid phase peptide synthesis ([[…]] [SEQ ID NO: 97]). For this inhibitor, Tyr33 was mutated back to serine as per the original mRNA display screen (FIG. 1). Cyclic MCoFx6 was screened using a competitive inhibition assay, with the substrate being changed from a colorimetric substrate (Ac-QRFR-pNA in the data of Tables 7 and 10) to a fluorescent substrate (Boc-QGR-MCA) to allow the assay to be run with a lower concentration of enzyme. The assay was performed as described for Examples 2 and 3, except that the FXIIa concentration was 0.5 nM and the substrate concentration was 50 μM (KM=187 μM).
The new variants were screened using competitive inhibition assays, with the substrate being changed from a colorimetric substrate (Ac-QRFR-pNA in the data of Tables 7 and 10) to a fluorescent substrate (Boc-QGR-MCA) to allow the assay to be run with a lower concentration of enzyme. Assays were performed as described for Examples 2 and 3, except that the FXIIa concentration was 0.5 nM and the substrate concentration was 50 μM (KM=187 μM). […] The effect of amino acid substitutions within loop 2 (Arg12, Arg13), loop 5 (Ala25, Arg27) or loop 6 (Asp34) on the activity of cyclic MCoFx7 against FXIIa was determined (refer to Table 14). […] Additionally, mutating Arg to Glu (reversing the side chain charge) only led to two-fold weaker activity. The adjacent residue Arg13 could also be mutated to Lys with no change in activity. Within loop 5, mutating Ala25 to Lys produced a slight gain in activity, whereas the Ala to Pro mutation led to a slight decrease in activity. Both mutations at Arg27 led to losses in activity in the order of two-fold (His) or 3.2-fold (Gly).
(§1) The activity of acyclic and cyclic MCoFx1-5 and analogues thereof was assessed in competitive inhibition assays, as previously described in Swedberg et al. (2016) J Med Chem, 59: 7287-7292. Human β-FXIIa was obtained from Molecular Innovations, together with human FXa, human FXIa, human α-thrombin, and human plasma kallikrein. Human cationic trypsin and human plasmin were obtained from Sigma-Aldrich, and recombinant human matriptase was sourced from R&D Systems. Recombinant human urokinase (uPA) and recombinant human tissue plasminogen activator (tPA) were expressed in Expi293 cells, as previously described in Li et al. (2019) Chembiochem, 20: 46-50. FXIIa inhibition assays were performed in clear, low-binding 96-well plates using 250 μL (final volume) of assay buffer (0.1 M Tris-HCl pH 8.0, 0.1 M NaCl, 10 mM CaCl2 and 0.005% Triton X-100). Inhibitors were serially diluted and incubated with 10 nM FXIIa at room temperature to reach equilibrium. After adding 100 μM Ac-QRFR-pNA substrate (KM=162 μM), enzymatic activity was measured by monitoring release of the pNA moiety using a TECAN infinite M1000 Pro plate reader (A=405 nm, reading interval, 10 s; assay time course, 7 min). Assays were conducted in three times in duplicate. Substrate kinetic constants (Michaelis-Menten) and inhibition constants (Morrison K) were determined by non-linear regression using Prism 7 (GraphPad). Selectivity assays with off-target proteases were performed in a similar way, except that different concentrations of enzyme and substrate were used, as indicated in Table 16. For assays using a fluorescent substrate (peptide-4-methylcoumaryl-7-amide, MCA), black low-binding 96-well plates were used and activity was measured using a TECAN infinite M1000 pro plate reader (λex 360 nm, λem 460 nm, reading interval, 30 s; assay time course, 5-30 min).

[2] = biological target: T2, biotinylated human β-FXIIa (Homo sapiens, UniProt P00748); assay: Surface plasmon resonance binding to FXIIa
T2 construct: purchased Molecular Innovations
T2 sequence (P00748 373-615 limits assumed, other chains not shown): as above
Experimental: Binding kinetics of each peptide towards biotinylated human β-FXIIa (Molecular Innovations) and non-labelled zymogen FXII (Haematologic Technologies) were determined using a Biacore T200 machine (Cytiva). For β-FXIIa binding measurements, the running buffer was HBS-EP+(10 mM HEPES, 150 mM NaCl, 3 mM EDTA and 0.05% (v/v) surfactant P20, pH 7.4). Biotinylated β-FXIIa was immobilized on a Sensor Chip CAP (Cytiva) using Biotin CAPture Reagent (Cytiva). A series of concentrations of each peptide were injected as analyte and the binding kinetics were modelled using a 1:1 binding model. Regeneration of sensor surface was performed after each measurement cycle. For FXII binding measurements, the running buffer was PBST (137 mM NaCl, 2.7 mM KCl, 10 mM Na2HPO4, 1.8 mM KH2PO4, 0.05% Tween-20). Non-labelled FXII was immobilized on a Sensor Chip CM5 (Cytiva) using Amine Coupling Kit (Cytiva), achieving a final immobilization level of 2500 RU. Each peptide was flowed through immobilized FXII at 5 μM for 60 s and allowed dissociation for 150 s.

bovine trypsin = biological target: T3, bovine trypsin (Bos taurus, UniProt P00760); assay: Surface plasmon resonance binding to trypsin
T3 sequence (P00760 24-246): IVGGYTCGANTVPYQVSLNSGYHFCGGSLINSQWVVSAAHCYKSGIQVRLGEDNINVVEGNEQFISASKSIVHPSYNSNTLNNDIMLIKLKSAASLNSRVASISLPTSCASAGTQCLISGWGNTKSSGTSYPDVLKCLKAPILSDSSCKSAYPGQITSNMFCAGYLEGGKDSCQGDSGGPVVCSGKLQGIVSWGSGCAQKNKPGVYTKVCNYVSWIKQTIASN

Human β-FXIIa [3] = biological target: T1, Human β-FXIIa; assay: FXIIa competitive inhibition assay, colorimetric substrate Ac-QRFR-pNA; format: biochemical
Experimental: as §1

SMILES | Ki (Human β-FXIIa [1]) [nM] | other results
CC[C@H](C)[C@@H]1NC(=O)CNC(=O)CNC(=O)[C@H](CC(=O)O)NC(=O)[C@H](CO)NC(=O)CNC(=O)[C@H](CO)NC(=O)CNC(=O)[C@@H]2CSSC[C@@H]3NC(=O)[C@H](CC(=O)O)NC(=O)[C@H](CO)NC(=O)[C@H](CC(=O)O)NC(=O)[C@H](CCCNC(=N)N)NC(=O)[C@H]([C@@H](C)O)NC(=O)[C@@H]4CSSC[C@H](NC(=O)[C@H]([C@@H](C)CC)NC(=O)[C@H](CSSC[C@H](NC1=O)C(=O)N1CCC[C@H]1C(=O)N[C@@H](CCCNC(=N)N)C(=O)N[C@@H]([C@@H](C)CC)C(=O)NCC(=O)N[C@@H](CCCNC(=N)N)C(=O)N[C@@H](CC(C)C)C(=O)N4)NC(=O)[C@H](C)NC(=O)CNC(=O)[C@@H]1CCCN1C3=O)C(=O)N[C@@H](CCCNC(=N)N)C(=O)N[C@@H](C)C(=O)N[C@@H]([C@@H](C)O)C(=O)N[C@@H](CCCNC(=N)N)C(=O)N[C@@H](Cc1ccccc1)C(=O)N2 [Cyclic [R12T]MCoFx7] (cyclo(ACICRATRFCGSGSDGGICPRIGRLCTRDSDCPG); disulfide 2-19, 4-26, 10-32) | 0.065 ± 0.005 | –
CC[C@H](C)[C@@H]1NC(=O)CNC(=O)CNC(=O)[C@H](CC(=O)O)NC(=O)[C@H](CO)NC(=O)CNC(=O)[C@H](CO)NC(=O)CNC(=O)[C@@H]2CSSC[C@@H]3NC(=O)[C@H](CC(=O)O)NC(=O)[C@H](CO)NC(=O)[C@H](CC(=O)O)NC(=O)[C@H](CCCNC(=N)N)NC(=O)[C@H](C(C)C)NC(=O)[C@@H]4CSSC[C@H](NC(=O)[C@H]([C@@H](C)CC)NC(=O)[C@H](CSSC[C@H](NC1=O)C(=O)N1CCC[C@H]1C(=O)N[C@@H](CCCNC(=N)N)C(=O)N[C@@H]([C@@H](C)CC)C(=O)NCC(=O)N[C@@H](CCCNC(=N)N)C(=O)N[C@@H](CC(C)C)C(=O)N4)NC(=O)[C@H](C)NC(=O)CNC(=O)[C@@H]1CCCN1C3=O)C(=O)N[C@@H](CCCNC(=N)N)C(=O)N[C@@H](C)C(=O)N[C@@H]([C@@H](C)O)C(=O)N[C@@H](CCCNC(=N)N)C(=O)N[C@@H](Cc1ccccc1)C(=O)N2 [Cyclic [R12V]MCoFx7] (cyclo(ACICRATRFCGSGSDGGICPRIGRLCVRDSDCPG); disulfide 2-19, 4-26, 10-32) | 0.069 ± 0.005 | –
CC[C@H](C)[C@@H]1NC(=O)CNC(=O)CNC(=O)[C@H](CC(=O)O)NC(=O)[C@H](CO)NC(=O)CNC(=O)[C@H](CO)NC(=O)CNC(=O)[C@@H]2CSSC[C@@H]3NC(=O)[C@H](CC(=O)O)NC(=O)[C@H](CO)NC(=O)[C@H](CC(=O)O)NC(=O)[C@H](CCCCN)NC(=O)[C@H](CCCNC(=N)N)NC(=O)[C@@H]4CSSC[C@H](NC(=O)[C@H]([C@@H](C)CC)NC(=O)[C@H](CSSC[C@H](NC1=O)C(=O)N1CCC[C@H]1C(=O)N[C@@H](CCCNC(=N)N)C(=O)N[C@@H]([C@@H](C)CC)C(=O)NCC(=O)N[C@@H](CCCNC(=N)N)C(=O)N[C@@H](CC(C)C)C(=O)N4)NC(=O)[C@H](C)NC(=O)CNC(=O)[C@@H]1CCCN1C3=O)C(=O)N[C@@H](CCCNC(=N)N)C(=O)N[C@@H](C)C(=O)N[C@@H]([C@@H](C)O)C(=O)N[C@@H](CCCNC(=N)N)C(=O)N[C@@H](Cc1ccccc1)C(=O)N2 [Cyclic [R13K]MCoFx7] (cyclo(ACICRATRFCGSGSDGGICPRIGRLCRKDSDCPG); disulfide 2-19, 4-26, 10-32) | 0.068 ± 0.003 | –
CC[C@H](C)[C@@H]1NC(=O)CNC(=O)CNC(=O)[C@H](CC(=O)O)NC(=O)[C@H](CO)NC(=O)CNC(=O)[C@H](CO)NC(=O)CNC(=O)[C@@H]2CSSC[C@@H]3NC(=O)[C@H](CC(=O)O)NC(=O)[C@H](CO)NC(=O)[C@H](CC(=O)O)NC(=O)[C@H](CCCNC(=N)N)NC(=O)[C@H](CCCNC(=N)N)NC(=O)[C@@H]4CSSC[C@H](NC(=O)[C@H]([C@@H](C)CC)NC(=O)[C@H](CSSC[C@H](NC1=O)C(=O)N1CCC[C@H]1C(=O)N[C@@H](CCCNC(=N)N)C(=O)N[C@@H]([C@@H](C)CC)C(=O)NCC(=O)N[C@@H](CCCNC(=N)N)C(=O)N[C@@H](CC(C)C)C(=O)N4)NC(=O)[C@H](C)NC(=O)CNC(=O)[C@@H]1CCCN1C3=O)C(=O)N[C@@H](CCCNC(=N)N)C(=O)N[C@@H](C)C(=O)N[C@@H]([C@@H](C)O)C(=O)NCC(=O)N[C@@H](Cc1ccccc1)C(=O)N2 [Cyclic [R27G]MCoFx7] (cyclo(ACICRATGFCGSGSDGGICPRIGRLCRRDSDCPG); disulfide 2-19, 4-26, 10-32) | 0.21 ± 0.008 | –
CC[C@H](C)[C@@H]1NC(=O)CNC(=O)CNC(=O)[C@H](CC(=O)O)NC(=O)[C@H](CO)NC(=O)CNC(=O)[C@H](CO)NC(=O)CNC(=O)[C@@H]2CSSC[C@@H]3NC(=O)[C@H](CC(=O)O)NC(=O)[C@H](CO)NC(=O)[C@H](CC(=O)O)NC(=O)[C@H](CCCNC(=N)N)NC(=O)[C@H](CCCNC(=N)N)NC(=O)[C@@H]4CSSC[C@H](NC(=O)[C@H]([C@@H](C)CC)NC(=O)[C@H](CSSC[C@H](NC1=O)C(=O)N1CCC[C@H]1C(=O)N[C@@H](CCCNC(=N)N)C(=O)N[C@@H]([C@@H](C)CC)C(=O)NCC(=O)N[C@@H](CCCNC(=N)N)C(=O)N[C@@H](CC(C)C)C(=O)N4)NC(=O)[C@H](C)NC(=O)CNC(=O)[C@@H]1CCCN1C3=O)C(=O)N[C@@H](CCCNC(=N)N)C(=O)N[C@@H](C)C(=O)N[C@@H]([C@@H](C)O)C(=O)N[C@@H](Cc1c[nH]cn1)C(=O)N[C@@H](Cc1ccccc1)C(=O)N2 [Cyclic [R27H]MCoFx7] (cyclo(ACICRATHFCGSGSDGGICPRIGRLCRRDSDCPG); disulfide 2-19, 4-26, 10-32) | 0.12 ± 0.008 | –
CC[C@H](C)[C@H](NC(=O)CNC(=O)CNC(=O)[C@@H](N)CC(=O)O)C(=O)N[C@H]1CSSC[C@@H]2NC(=O)[C@H](C)NC(=O)CNC(=O)[C@@H]3CCCN3C(=O)[C@@H]3CSSC[C@@H](C(=O)NCC(=O)N[C@@H](CO)C(=O)NCC(=O)N[C@@H](CO)C(=O)O)NC(=O)[C@H](Cc4ccc(O)cc4)NC(=O)[C@H]([C@@H](C)O)NC(=O)[C@H](CCCNC(=N)N)NC(=O)[C@H](CCCNC(=N)N)NC(=O)[C@H]([C@@H](C)CC)NC(=O)[C@H](CSSC[C@H](NC(=O)[C@H](Cc4ccc(O)cc4)NC(=O)[C@H](C(C)C)NC(=O)[C@H](CC(C)C)NC(=O)[C@H]([C@@H](C)CC)NC(=O)[C@H](CCCNC(=N)N)NC(=O)[C@@H]4CCCN4C1=O)C(=O)N[C@@H](CCCNC(=N)N)C(=O)N[C@@H](CCCNC(=N)N)C(=O)N[C@@H](CC(=O)O)C(=O)N[C@@H](CO)C(=O)N[C@@H](CC(=O)O)C(=O)N3)NC(=O)[C@H]([C@@H](C)CC)NC2=O [MCoFx2 acyclic] (H-DGGICPRILVYCRRDSDCPGACICIRRTYCGSGS-OH; disulfide 5-22, 12-24, 18-30) | – | Kd [2]: 45.4 ± 2.9 nM; Kd (bovine trypsin): < 0.1 nM; Ki (Human β-FXIIa [3]): 73 ± 3 nM

From US20240344241A1, “PROTEINACEOUS MOLECULES AND USES THEREFOR” (THE UNIVERSITY OF QUEENSLAND, priority 2021, published 2024)
